Reference: patent US11345695B2, “Substituted nicotinimide inhibitors of BTK and their preparation and use in the treatment of cancer, inflammation and autoimmune disease” (GUANGZHOU INNOCARE PHARMA TECH CO., LTD., priority 2013, dated 2022)

Target: BTK (Homo sapiens (Human), UniProt Q06187)
Assay: kinase-tagged phage / affinity bead competition binding screen (qPCR readout)
Conditions: BTK versus SRC

Sequence of BTK (Q06187 whole entry): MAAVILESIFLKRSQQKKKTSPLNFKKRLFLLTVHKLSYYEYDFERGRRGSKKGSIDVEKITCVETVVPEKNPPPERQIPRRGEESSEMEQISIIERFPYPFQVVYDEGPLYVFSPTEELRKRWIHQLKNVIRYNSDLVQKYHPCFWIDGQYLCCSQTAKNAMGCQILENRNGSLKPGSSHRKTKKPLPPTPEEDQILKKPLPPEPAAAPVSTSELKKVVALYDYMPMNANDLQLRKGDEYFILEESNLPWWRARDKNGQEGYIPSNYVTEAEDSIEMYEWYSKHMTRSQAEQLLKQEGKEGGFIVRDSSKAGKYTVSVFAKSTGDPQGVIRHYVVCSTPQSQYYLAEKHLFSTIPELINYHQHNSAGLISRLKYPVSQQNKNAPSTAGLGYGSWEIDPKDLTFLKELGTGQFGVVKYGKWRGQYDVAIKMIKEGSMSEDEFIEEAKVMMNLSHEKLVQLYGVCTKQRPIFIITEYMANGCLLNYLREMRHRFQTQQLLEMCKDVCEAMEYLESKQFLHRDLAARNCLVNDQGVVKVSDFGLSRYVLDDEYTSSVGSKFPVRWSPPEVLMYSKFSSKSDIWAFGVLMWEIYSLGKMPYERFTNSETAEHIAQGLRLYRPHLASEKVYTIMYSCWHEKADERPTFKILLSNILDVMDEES

- Fold Difference: >100x
Structure (SMILES): C=CC(=O)N1CCN(c2ccc(C(N)=O)c(-c3ccc(Oc4ccccc4)cc3)n2)CC1 [Example 5, 6-(4-acryloylpiperazin-1-yl)-2-(4-phenoxyphenyl)nicotinamide]
